Measured values from patent publication US20250011881A1, “MYC-HSF1 DUAL AMPLIFICATION AS A BIOMARKER FOR CANCER TREATMENT” (The Trustees of Indiana University, priority 2023, published 2025).
Several values for one entry are separate records, joined by “and”; a condition that tells them apart may be missing. Equal values may be shown once. Where a name gives a salt, the structure may show the parent alone.

test system: ovarian cancer cells with (OVCAR8, OVCAR4) or without (OVSAHO, CAOV3) MYC-HSF1 amplification; test: Epigenetic inhibitor drug screen, cell viability (Cell Titer Blue); assay type: cell-based; conditions: not given

Row | Structure (SMILES) | Non Amp - AMP (POC) 10 uM [POC]
1 | C/C(O)=C(\C#N)C(=O)Nc1cc(Br)ccc1Br [LFM-A13] | 5.442
2 | O=C(O)CCNc1cc(N2CCc3ccccc3CC2)nc(-c2ccccn2)n1 [GSK J1] | 1.38
3 | CC(C)(C)c1nc2c3cc[nH]c(=O)c3c3cc(F)ccc3c2[nH]1 [Pyridone 6] | −0.4008

same assay, conditions: 10 uM, 48 hrs; average relative cell viability (vs 1% DMSO) of non-amplified cells (OVSAHO, CAOV3) minus that of MYC-HSF1 amplified cells (OVCAR8, OVCAR4); positive = greater response in amplified cells

Row | Structure (SMILES) | Non Amp - AMP (POC) 10 uM [POC]
4 | O=C(CCCCCCNC(=O)c1cnc(N(c2ccccc2)c2ccccc2)nc1)NO [Rocilinostat (ACY-1215), Rocilinostat] | 32.23
5 | Cc1csc(-c2nnc(Nc3ccc(Oc4ncccc4-c4ccnc(N)n4)cc3)c3ccccc23)c1 [AMG-900] | 4.126
6 | O=C(Nc1c[nH]nc1-c1nc2ccc(CN3CCOCC3)cc2[nH]1)NC1CC1 [AT9283] | −1.133
7 | N#C/C(=C/c1ccc(O)c(O)c1)C(=O)NCc1ccccc1 [AG-490] | −10.83
8 | CS(=O)(=O)O.Cn1cc(C2=C(c3cn(CCCSC(=N)N)c4ccccc34)C(=O)NC2=O)c2ccccc21 [Ro 31-8220 Mesylate] | 3.048
9 | Cl.O=C(Nc1ccccc1-c1cn2c(CN3CCNCC3)csc2n1)c1cnc2ccccc2n1 [SRT1720 HCl] | 4.809
10 | Cc1cc(-c2nc(-c3ccc(OC(F)(F)F)cc3)no2)nn1Cc1ccnc(N2CCN(C3CC3)CC2)c1 [BAY 87-2243] | 11.79
11 | O=c1[nH]c(=S)[nH]c(-c2ccccc2)c1Cc1c(O)ccc2ccccc12 [SIRT 1/2 Inhibitor IV] | 18.95
12 | O=C(O)CC[C@H](O)C(=O)O [L-a-Hydroxyglutaric Acid] | −7.873
13 | O=C(Nc1ccc(-c2ccnc(Nc3ccc(N4CCOCC4)cc3)n2)cc1)C1CCCN1 (stereo not shown) [XL019] | −14.18
14 | CC(C)(CCCCCC(O)CCCCCC(C)(C)C(=O)O)C(=O)O [ETC-1002] | −2.506
15 | O=c1[nH]cnc2ccccc12 [4-HQN] | −1.37
16 | CCC1C/C(=C\c2cccnc2)C(=O)/C(=C/c2cccnc2)C1 (stereo not shown) [MCB-613] | −5.355
17 | NC(=O)C1CCCc2c1[nH]c1ccc(Cl)cc21 (stereo not shown) [EX 527 (SEN0014196)] | −0.5892
18 | Cn1c2ccccc2c2c3c(c4c5ccccc5n(CCC#N)c4c21)CNC3=O [Go 6976] | 5.045
19 | C=C1C[C@@]2(O)O[C@@]3(C[C@H]2C(C)C)[C@@H](C)CC[C@@H]13 [Curcumol] | −1.726

Row | Structure (SMILES) | Non Amp - AMP (POC) 10 uM [POC]
20 | Cn1ncnc1[C@H]1c2n[nH]c(=O)c3cc(F)cc(c23)N[C@@H]1c1ccc(F)cc1 [BMN 673] | −11.28
21 | Oc1cc(O)c2cc(O)c(-c3cc(O)c(O)c(O)c3)[o+]c2c1 [Delphinidin (chloride), Delphinidin] | 9.89
22 | CCS(=O)(=O)N1CC(CC#N)(n2cc(-c3ncnc4[nH]ccc34)cn2)C1.O=P(O)(O)O [Baricitirib phosphate] | 7.373
23 | O=S(=O)(c1cccc2cnccc12)N1CCCNCC1 [Fasudil (HA-1077) HCl, Fasudil] | 15.8
24 | CS(=O)(=O)c1ccc(-c2cnc(NCc3ccco3)n3cnnc23)cc1 [EED226] | 32.64
25 | O=C1/C(=C/c2ccc(O)c(Br)c2)CCC/C1=C\c1ccc(O)c(Br)c1 [HAT Inhibitor II] | −25.46
26 | CCN(CC)CCNC(=O)c1ccc(N)cc1 [Procainamide HCl] | 4.095
27 | CN1CCC(CNc2ccc3ncc(-c4cccc(OC(F)(F)F)c4)n3n2)CC1 [SGI-1776 free base] | −17.37
28 | CN(C)CC(=O)Nc1ccc2[nH]c(=O)c3ccccc3c2c1.Cl [PJ34 hydrochloride] | 3.696
29 | Cc1cc(/N=N/c2ccc(S(=O)(=O)Nc3ccccn3)cc2)c(N)cc1O [MS436] | 8.852
30 | O=C(CCCCCCC(=O)Nc1ccc(I)cc1)NO [4-iodo-SAHA] | 29.5
31 | COc1cc(C(=O)N2CC[C@@H](O)[C@@H](N)C2)cc2nc(-c3cc4ccccc4n3CC3CC3)n(C)c12.Cl [GSK484 (hydrochloride)] | 0.3153
32 | Cn1ncnc1C1c2n[nH]c(=O)c3cc(F)cc(c23)NC1c1ccc(F)cc1 (stereo not shown) [BMN-673 8R, 9S] | −2.489
33 | CC(C)N(CCCNC(=O)Nc1ccc(C(C)(C)C)cc1)C[C@H]1O[C@@H](n2ccc3c(N)ncnc32)[C@H](O)[C@@H]1O.O=CO [EPZ004777 (formate)] | 10.91
34 | O=C(/C=C/c1cccc(S(=O)(=O)Nc2ccccc2)c1)NO [Belinostat (PXD101), Belinostat] | 12.55
35 | Cc1cc(C)c(CNC(=O)c2cc(-c3ccc(N4CCN(C)CC4)nc3)cc3c2c(C)cn3C(C)C)c(=O)[nH]1 [GSK503] | −0.09843

same assay, conditions: 10 uM, 48 hrs; average relative cell viability (vs 1% DMSO) of non-amplified cells (OVSAHO, CAOV3) minus that of MYC-HSF1 amplified cells (OVCAR8, OVCAR4); positive = greater response in amplified cells; 10 µM

Row | Structure (SMILES) | Non Amp - AMP (POC) 10 uM
36 | CN(C)Cc1c(C(=O)NCCOc2ccc(C(=O)NO)cc2)oc2ccccc12 [PCI 24781] | 42.57 POC
37 | CC(C)(C)OC(=O)Nc1ccc(-c2cc(C(=O)NCCCCCCC(=O)NO)no2)cc1 [CAY10603] | 43.89 POC and 29.05 POC
38 | Nc1nc2nc[nH]c2c(=S)[nH]1 [Thioguanine] | 9.104 POC
39 | Fc1cc(-c2cccc3ncc(-c4cnn(C5CCNCC5)c4)nc23)cc(F)c1CN1CCOCC1 [NVP-BSK805 2HCl] | −12.67 POC
40 | O=Nc1ccc(O)c2ncccc12 [NSC 3852] | 27.71 POC
41 | C[S+]([O-])CCCCN=C=S [L-Sulforaphane] | −5.74 POC
42 | COc1cccc2c1C(=O)c1c(O)c3c(c(O)c1C2=O)C[C@@](O)(C(=O)CO)C[C@@H]3O[C@H]1C[C@H](N)[C@H](O)[C@H](C)O1 [Doxorubicin (Adriamycin) HCl, Doxorubicin] | 3.26 POC
43 | Fc1cc(-c2cccc3ncc(-c4cnn(C5CCNCC5)c4)nc23)cc(F)c1CN1CCOCC1 [NVP-BSK805] | −1.371 POC
44 | O=C(O)C(Cc1c[nH]c2ccccc12)N1C(=O)c2ccccc2C1=O (stereo not shown) [RG108] | 17.36 POC
45 | Nc1ccn([C@@H]2O[C@H](CO)[C@@H](O)C2(F)F)c(=O)n1 [Gemcitabine] | 28.61 POC
46 | Cc1[nH]c2ccccc2c1CCNCc1ccc(/C=C/C(=O)NO)cc1 [Panobinostat] | 41.46 POC

same assay, conditions: 10 uM, 48 hrs; average relative cell viability (vs 1% DMSO) of non-amplified cells (OVSAHO, CAOV3) minus that of MYC-HSF1 amplified cells (OVCAR8, OVCAR4); positive = greater response in amplified cells; listed as PCI-24781 (CRA-024781), 10 µM

Row | Structure (SMILES) | Non Amp - AMP (POC) 10 uM [POC]
47 | CN(C)Cc1c(C(=O)NCCOc2ccc(C(=O)NO)cc2)oc2ccccc12 [PCI 24781] | 28.7

same assay, conditions: 10 uM, 48 hrs; average relative cell viability (vs 1% DMSO) of non-amplified cells (OVSAHO, CAOV3) minus that of MYC-HSF1 amplified cells (OVCAR8, OVCAR4); positive = greater response in amplified cells; listed as Panobinostat (LBH589), 10 µM

Row | Structure (SMILES) | Non Amp - AMP (POC) 10 uM [POC]
48 | Cc1[nH]c2ccccc2c1CCNCc1ccc(/C=C/C(=O)NO)cc1 [Panobinostat] | 27.26

same assay, conditions: 10 uM, 48 hrs; average relative cell viability (vs 1% DMSO) of non-amplified cells (OVSAHO, CAOV3) minus that of MYC-HSF1 amplified cells (OVCAR8, OVCAR4); positive = greater response in amplified cells; listed as RG 108, 10 µM

Row | Structure (SMILES) | Non Amp - AMP (POC) 10 uM [POC]
49 | O=C(O)C(Cc1c[nH]c2ccccc12)N1C(=O)c2ccccc2C1=O (stereo not shown) [RG108] | −2.615
